Results: US20040006784A1, “Methods and compositions for producing plants and microorganisms that express feedback insensitive threonine dehydratase/deaminase” (priority 1997, published 2004)

Legend:
[1] = target: T1, threonine dehydratase/deaminase (TD) (Arabidopsis thaliana, UniProt Q9ZSS6, R499C/R544H); conditions: extracts from GM11b (omr1/omr1) plants compared with wild type plants; Mourad and King 1995; cited from earlier work
T1 construct: from tissue; host or cells: extracts of Arabidopsis thaliana GM11b (omr1/omr1) plants
T1 sequence (Q9ZSS6 92-592 R499C/R544H): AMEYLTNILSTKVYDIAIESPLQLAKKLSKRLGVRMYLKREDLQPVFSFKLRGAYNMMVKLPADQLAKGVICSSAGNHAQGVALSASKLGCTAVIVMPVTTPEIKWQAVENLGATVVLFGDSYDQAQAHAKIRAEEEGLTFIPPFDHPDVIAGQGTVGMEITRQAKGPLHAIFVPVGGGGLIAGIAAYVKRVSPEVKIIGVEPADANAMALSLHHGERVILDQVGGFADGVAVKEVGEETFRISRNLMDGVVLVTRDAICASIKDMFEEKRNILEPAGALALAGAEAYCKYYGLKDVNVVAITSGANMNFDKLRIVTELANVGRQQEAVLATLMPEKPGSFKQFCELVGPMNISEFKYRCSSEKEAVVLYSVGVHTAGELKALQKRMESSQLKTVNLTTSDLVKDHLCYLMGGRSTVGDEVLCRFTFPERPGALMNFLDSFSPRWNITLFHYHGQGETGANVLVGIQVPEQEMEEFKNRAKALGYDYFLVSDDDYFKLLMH

[2] = system: E. coli prototroph host DH5α; assay: Growth of E. coli DH5α on minimal medium supplemented with L-O-methylthreonine (second complementation experiment); type: cell-based
Protocol: In the second complementation experiment, the E. coli prototroph host DH5α was transformed with pTrc-td23 or pUCK-td23 and plated on minimal medium supplemented with varying concentrations of the toxic analog L-O-methylthreonine. Both of the constructs were able to confer upon DH5α resistance to 30 μM L-O-methylthreonine. […] Therefore omr1 provides a new environmentally friendly selectable marker for genetic transformation of bacteria.

[3] = system: Arabidopsis thaliana Columbia wild type; assay: Germination and growth of seedlings in agar medium supplemented with L-O-methylthreonine; type: in vivo; conditions: 0.2 mM L-O-methylthreonine agar medium, T1 seed screen
Source text: Using the vacuum infiltration method of Bent et al. (1994), L-O-methylthreonine-sensitive Arabidopsis thaliana Columbia wild type were transformed with pCM35S-omr1. Ten pots, each with 3-4 plants, were transformed and T1 seeds were harvested from the To transformed plants of each pot separately. […] In a crowded plate, it is possible to identify the transformants by looking at the bottom of the plate, the transformants show root growth while the nontransformants will have none. After three weeks of growth in the 0.2 mM L-O-methylthreonine agar medium, each of the 5 positive transformants was transferred to soil, kept separately and allowed to self-fertilize to produce the T2 seed.

[4] = system: T2 seedlings of omr1 transgenic Arabidopsis; assay: T2 seedlings of omr1 transformants on L-O-methylthreonine agar medium; type: in vivo, Arabidopsis thaliana; conditions: 0.2 mM L-O-methylthreonine agar medium, 50 T2 seeds/transformant, each of 5 plates
Protocol: The T2 seed was harvested from each of the 5 positive T1 transformants and 50 T2 seeds/transformant were planted in a separate petri plate containing 0.2 mM L-O-methylthreonine agar medium. […] This slightly truncated precursor mutant TD was able to translocate to the chloroplast and confer upon transgenic plants resistance to OMT.

[5] = system: Arabidopsis thaliana Columbia wild type; conditions: agar medium; Mourad and King, 1995; cited from earlier work
manmalian cell cultures = conditions: by inhibiting incorporation of Ile into proteins; Rabinovitz et al. 1955; cited from earlier work

Compound | resistance of TD activity to feedback inhibition by Ile, GM11b extracts versus wild type extracts [1] | L-O-methylthreonine concentration to which resistance was conferred ([2]; DH5α transformed with pTrc-td23 or pUCK-td23 (omr1), minimal medium) | growth of bacterial colonies on plates with L-O-methylthreonine ([2]; untransformed DH5α, minimal medium supplemented with varying concentrations of L-O-methylthreonine) | appearance of nontransformed seedlings after emergence of the cotyledons [3] | T2 seedlings resistant to L-O-methylthreonine [4] | concentration known to completely inhibit the growth of wild type seedlings beyond the cotyledonous stage [5] | effect on growth of mammalian cell cultures (manmalian cell cultures)
CC[C@H](C)[C@H](N)C(=O)O [Ile, isoleucine] | about 50 fold | – | – | – | – | – | –
CO[C@H](C)[C@H](N)C(=O)O [L-O-methylthreonine] | – | 30 µM | No bacterial colonies grew | completely bleached | ≥ 75% | 0.2 mM | inhibits growth
